Measured values reported in ChEMBL document CHEMBL1201862, “PubChem BioAssay data set” (2004).
Where a name gives a salt, the structure may show the parent alone. The source made the active and inactive calls.

Experiments:
[1] = molecular target: Disintegrin and metalloproteinase domain-containing protein 17 (Homo sapiens, UniProt P78536); test: exosite inhibitors of ADAM17, dose response, biochemical (AID 743260)
[2] = inhibition of ADAM10 peptide cleavage – biochemical, FRET peptide substrate, recombinant human ADAM10, selectivity assay for ADAM17 exosite inhibitor project, dose response (AID 743259);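 also: ADAM10 enzyme cleaving a FRET peptide substrate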
[3] = molecular target: T1, Carboxy-terminal domain RNA polymerase II polypeptide A small phosphatase 1 (Homo sapiens, UniProt Q9GZU7); test: CTDSP1 inhibitors, concentration-response, biochemical, absorbance readout, ultra-high-throughput screen actives (AID 540297); type: functional
T1 sequence (Q9GZU7 whole entry): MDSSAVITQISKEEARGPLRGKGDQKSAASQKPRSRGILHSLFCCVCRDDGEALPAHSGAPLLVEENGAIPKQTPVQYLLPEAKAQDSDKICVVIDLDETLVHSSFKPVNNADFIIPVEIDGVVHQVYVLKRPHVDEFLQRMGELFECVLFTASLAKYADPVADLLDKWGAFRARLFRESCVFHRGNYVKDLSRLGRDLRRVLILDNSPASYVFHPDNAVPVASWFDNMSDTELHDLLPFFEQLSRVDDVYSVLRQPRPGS

INS1 = test: INS-1E survival protection against cytokine death – cell-based, luminescence, retest, dose response (AID 449756); type: functional; conditions: Rattus norvegicus;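 also: cell death triggered by IL-1 beta plus TNF-alpha plus IFN-gamma mixture; protective hits raise ATP signal compared with cytokine alone wells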
Vero = test: cells; type: functional; conditions: Chlorocebus sabaeus
[4] = molecular target: T2, Short transient receptor potential channel 4 (Mus musculus, UniProt Q9QUQ5); test: block of DAMGO-driven TRPC4 calcium entry – cell-based, HEK293 TRPC4/mu-opioid, Fluo-4 calcium, dose response (AID 434942); type: functional;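 also: potency of inhibitors blocking the TRPC4 calcium response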
T2 sequence (Q9QUQ5 whole entry): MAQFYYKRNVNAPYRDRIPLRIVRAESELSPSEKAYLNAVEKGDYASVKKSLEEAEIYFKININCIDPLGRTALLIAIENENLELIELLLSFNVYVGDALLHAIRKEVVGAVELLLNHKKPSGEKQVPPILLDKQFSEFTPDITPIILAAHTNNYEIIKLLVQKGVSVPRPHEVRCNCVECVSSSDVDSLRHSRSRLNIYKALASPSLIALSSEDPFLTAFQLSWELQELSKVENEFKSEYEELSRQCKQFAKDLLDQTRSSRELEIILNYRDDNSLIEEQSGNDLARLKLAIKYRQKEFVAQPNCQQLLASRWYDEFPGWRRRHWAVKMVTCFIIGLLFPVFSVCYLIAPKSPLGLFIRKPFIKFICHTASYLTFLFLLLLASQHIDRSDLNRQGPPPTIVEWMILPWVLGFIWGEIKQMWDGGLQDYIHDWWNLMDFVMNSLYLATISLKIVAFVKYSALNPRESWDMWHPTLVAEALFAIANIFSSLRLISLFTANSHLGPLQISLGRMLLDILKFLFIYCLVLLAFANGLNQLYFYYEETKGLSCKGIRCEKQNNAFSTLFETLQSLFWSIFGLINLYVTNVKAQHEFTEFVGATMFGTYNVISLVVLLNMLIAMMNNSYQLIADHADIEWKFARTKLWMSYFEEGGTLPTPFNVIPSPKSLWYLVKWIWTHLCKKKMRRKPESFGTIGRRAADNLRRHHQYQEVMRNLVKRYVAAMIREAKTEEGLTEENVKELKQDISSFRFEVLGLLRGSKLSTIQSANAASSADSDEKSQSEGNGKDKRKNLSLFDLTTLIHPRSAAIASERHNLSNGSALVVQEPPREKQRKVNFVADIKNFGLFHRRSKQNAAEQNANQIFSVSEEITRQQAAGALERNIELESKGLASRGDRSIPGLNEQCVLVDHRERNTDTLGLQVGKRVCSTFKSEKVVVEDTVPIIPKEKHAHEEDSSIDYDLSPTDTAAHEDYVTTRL

[5] = molecular target: T3, High affinity choline transporter 1 (Homo sapiens, UniProt Q9GZV3); test: human choline transporter blockers, potency – cell-based, 5-point CRC, membrane potential dye, dose response (AID 504840); type: functional
T3 sequence (Q9GZV3 whole entry): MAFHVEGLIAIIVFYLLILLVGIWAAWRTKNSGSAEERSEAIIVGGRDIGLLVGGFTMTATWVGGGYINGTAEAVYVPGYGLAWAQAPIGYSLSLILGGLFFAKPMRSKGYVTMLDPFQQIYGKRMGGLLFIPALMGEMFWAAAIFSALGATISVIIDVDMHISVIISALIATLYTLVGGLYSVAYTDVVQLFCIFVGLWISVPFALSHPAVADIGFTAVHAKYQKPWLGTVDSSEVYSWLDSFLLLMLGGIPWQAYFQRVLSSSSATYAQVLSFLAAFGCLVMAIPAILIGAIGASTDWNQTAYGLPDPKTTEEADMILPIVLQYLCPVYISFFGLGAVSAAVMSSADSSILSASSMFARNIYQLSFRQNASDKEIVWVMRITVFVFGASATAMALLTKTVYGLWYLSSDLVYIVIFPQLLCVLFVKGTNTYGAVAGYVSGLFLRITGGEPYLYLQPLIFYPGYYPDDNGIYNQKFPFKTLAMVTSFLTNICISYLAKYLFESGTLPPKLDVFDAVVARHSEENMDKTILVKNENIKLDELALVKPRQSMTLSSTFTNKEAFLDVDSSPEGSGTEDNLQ

[6] = T. cruzi growth inhibition in host cells, dose response, cell-based, plate reader, dry powder, set 2 (AID 652275); type: functional
[7] = molecular target: DNA dC->dU-editing enzyme APOBEC-3A (Homo sapiens, UniProt P31941); test: Dose Response confirmation of small molecule APOBEC3A DNA Deaminase Inhibitors via a fluorescence-based single-stranded DNA deaminase assay. [Related pubchem assays (depositor defined):AID493011, AID493024]; type: functional
[8] = molecular target: DNA dC->dU-editing enzyme APOBEC-3G (Homo sapiens, UniProt Q9HC16); type: functional;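 also: Dose-response counterscreen measuring inhibition of APOBEC3G DNA deaminase activity, run while confirming APOBEC3A inhibitors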
[9] = Trypanosoma cruzi growth suppression in host cells – NIH3T3 host cells, beta-gal luminescence, confirmation (AID 2044); type: functional, cell-based;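 also: intracellular parasites grown in NIH/3T3 mouse fibroblasts as host cells; luminescent beta-galactosidase reporter signal from transgenic T. cruzi replicating inside host cells; inhibitors lower the luminescence signal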
[10] = NIH3T3 cell viability loss – ATP luminescence, mouse fibroblasts, counter-screen, dose response (AID 2010); type: functional, cell-based;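 also: cells exposed to compound for about 90 hours before reading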
[11] = molecular target: T4, Endoribonuclease toxin MazF (Escherichia coli K-12, UniProt P0AE70); test: activation of MazEF endoribonuclease cleavage – biochemical, fluorescence, single-stranded RNA substrate, uHTS hits, dose response (AID 588481); type: functional
T4 sequence (P0AE70 whole entry): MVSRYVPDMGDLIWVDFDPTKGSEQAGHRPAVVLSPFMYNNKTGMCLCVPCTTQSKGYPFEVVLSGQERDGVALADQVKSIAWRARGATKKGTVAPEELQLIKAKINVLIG

[12] = molecular target: T4, Endoribonuclease toxin MazF; test: substrate-only fluorescence increase artefacts – biochemical, single-stranded RNase substrate, counter-screen for MazEF activator project, dose response (AID 588502); type: functional

DNA dC->dU-editing enzyme APOBEC-3G, sequence (Q9HC16 whole entry): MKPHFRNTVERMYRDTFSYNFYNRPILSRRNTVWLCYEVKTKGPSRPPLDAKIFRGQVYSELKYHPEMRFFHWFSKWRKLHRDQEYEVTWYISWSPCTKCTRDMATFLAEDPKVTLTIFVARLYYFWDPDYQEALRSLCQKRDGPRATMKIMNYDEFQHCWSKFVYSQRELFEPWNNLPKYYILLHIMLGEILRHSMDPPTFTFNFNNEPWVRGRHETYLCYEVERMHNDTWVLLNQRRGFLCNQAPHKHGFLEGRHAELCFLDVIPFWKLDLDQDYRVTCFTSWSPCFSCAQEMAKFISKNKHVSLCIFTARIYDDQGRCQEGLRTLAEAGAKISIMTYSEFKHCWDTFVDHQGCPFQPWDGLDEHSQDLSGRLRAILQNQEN
Disintegrin and metalloproteinase domain-containing protein 17, sequence (P78536 whole entry, the tested form may be a part): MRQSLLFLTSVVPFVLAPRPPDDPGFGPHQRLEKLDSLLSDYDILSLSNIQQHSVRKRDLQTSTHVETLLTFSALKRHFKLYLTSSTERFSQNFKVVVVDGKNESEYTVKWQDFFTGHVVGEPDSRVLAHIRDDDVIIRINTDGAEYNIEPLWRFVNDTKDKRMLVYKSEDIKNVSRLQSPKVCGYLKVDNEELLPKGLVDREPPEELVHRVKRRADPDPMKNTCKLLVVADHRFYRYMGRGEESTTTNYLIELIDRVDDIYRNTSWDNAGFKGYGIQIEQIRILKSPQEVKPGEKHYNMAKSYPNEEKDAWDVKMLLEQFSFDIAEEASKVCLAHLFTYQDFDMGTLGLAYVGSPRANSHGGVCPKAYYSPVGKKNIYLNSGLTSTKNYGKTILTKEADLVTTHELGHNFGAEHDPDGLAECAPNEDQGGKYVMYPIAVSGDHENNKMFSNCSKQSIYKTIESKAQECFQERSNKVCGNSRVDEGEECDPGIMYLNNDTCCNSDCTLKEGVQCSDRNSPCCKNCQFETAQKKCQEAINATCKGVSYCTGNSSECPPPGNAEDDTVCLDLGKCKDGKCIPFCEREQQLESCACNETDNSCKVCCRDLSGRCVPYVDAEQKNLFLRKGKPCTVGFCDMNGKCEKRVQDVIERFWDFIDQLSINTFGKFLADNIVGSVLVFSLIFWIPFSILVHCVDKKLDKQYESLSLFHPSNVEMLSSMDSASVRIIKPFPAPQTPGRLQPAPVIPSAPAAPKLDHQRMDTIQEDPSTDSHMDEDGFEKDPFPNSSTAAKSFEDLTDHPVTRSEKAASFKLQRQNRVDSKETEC
DNA dC->dU-editing enzyme APOBEC-3A, sequence (P31941 whole entry): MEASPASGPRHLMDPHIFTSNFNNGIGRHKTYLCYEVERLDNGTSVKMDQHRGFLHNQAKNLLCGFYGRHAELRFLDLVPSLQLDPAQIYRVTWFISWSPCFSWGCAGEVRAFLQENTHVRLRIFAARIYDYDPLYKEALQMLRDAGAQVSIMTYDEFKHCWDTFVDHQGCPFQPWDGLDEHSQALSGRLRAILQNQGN

Question: For Cc1cc(C)cc(-n2c(SC(C)C(=O)NCc3ccc4c(c3)OCO4)nc3ccccc3c2=O)c1 (stereo not drawn), which IC50 [1] is on record?
Answer: > 69.5 µM (inactive)

Question: And the IC50 [2]?
Answer: 18.3 µM (inactive)

Question: Which IC50 [3] does the source give for O=C(Nc1ccc(S(=O)(=O)Nc2nccs2)cc1)c1nn(-c2ccccc2)ccc1=O here?
Answer: 3.52 µM (active)

Question: For COc1ccc(C2=Nn3c(nnc3-c3ccccc3Cl)SC2)cc1OC1CCCC1, which AC50 (INS1) is on record?
Answer: 42.7 µM (active)

Question: What about the CC50 (Vero) of the same molecule?
Answer: 10.7 µM (active)

Question: Which EC50 [4] does the source give for COc1ccccc1CC(Cc1nc2ccccc2[nH]1)c1nc2ccccc2[nH]1 (stereo not drawn) here?
Answer: 3.35 µM (active)

Question: What about the IC50 [5] of the same molecule?
Answer: 13.8 µM (active)

Question: With CC(C)N1C[C@@H](CN(C)Cc2ccc(Cl)c(Cl)c2)Oc2c(NC(=O)c3ccncc3)cccc2C1=O as the molecule, how does the AC50 [6] read?
Answer: 0.000485 µM (active)

Question: Which IC50 [7] does the source give for COc1ccc(CN2CCNCC2)c(OC)c1OC [TRIMETAZIDINE DIHYDROCHLORIDE] here?
Answer: 8.26 µM (active)

Question: And the IC50 [8]?
Answer: 7.19 µM (active)

Question: What about the IC50 [3] of the same molecule?
Answer: 8.85 µM (active)

Question: With O=C(O)c1nn(CCOc2c(Cl)cccc2Cl)c(=O)c2ccccc12 as the molecule, how does the CC50 (Vero) read?
Answer: > 25 µM (active)

Question: With Cc1cc(C(=O)N/N=C/c2ccc(-c3ccccc3Cl)o2)[nH]n1 as the molecule, how does the EC50 [9] read?
Answer: 1.5 µM (active)

Question: What about the EC50 [10] of the same molecule?
Answer: > 60 µM (not active)

Question: And the IC50 [3]?
Answer: 11.5 µM (active)

Question: For CC(C)N1C[C@H](C)[C@@H](CN(C)Cc2ccc(Cl)c(Cl)c2)Oc2c(cccc2-c2nnc(-c3ccncc3)o2)C1=O, which AC50 [6] is on record?
Answer: 0.0624 µM (active)

Question: Which results are given for CN(C)Cc1c(C(=O)N/N=C/c2cccc(OCc3ccc(F)cc3)c2)nnn1-c1nonc1N?
Answer: EC50 [11]: 45.2 µM (inactive); EC50 [12]: > 99 µM (inactive)
